# Tests used:
# adenocarcinoma = assay: Adenocarcinoma, intravenous administration four times; type: in vivo, mice; settings: 5 mg/kg intravenous four times
# Source text: 2. Antitumor Activity for Adenocarcinoma and Intra-Venous Administration (Four Times in Physiological Saline Solution)
# C-180 sarcoma = assay: Antitumor activity for C-180 sarcoma, intraperitoneal; type: in vivo; settings: 5 mg/kg intraperitoneal
# Description: 4. Antitumor Activity for C-180 Sarcoma
# The results of series of experiments in which the stated active ingredient was administered intra-peritoneally in the stated dosage in physiological saline solution are shown in table 5 below.
# leukemia P-388 = assay: Leukemia P-388 survival (original strain); type: in vivo, mice
# Description: (§1) The therapeutic efficacy was investigated on the leukemia tumor strains L-1210, P-388, and P-388 strains specifically obtained for drug resistance. The lifespan of the animals was set at 60 days in this case. Drug-resistant tumor were obtained by successive transplantation of the leukemia P-388 with ascites cells taken from mice which had been treated with rubomycin (strain P388/ph), vincristine (P388/vcr) and zisplatin (P388/cPt).
# Inoculum: 10^6 cells in 0.2 ml of physiological saline solution. Mice: BDF1. Females 19-21 g
# After transplantation of the tumor, the substance MOC.melphalan was administered intraabdominally to the animals in a dosage of 5 mg/kg in 0.3 ml of 10% Twin-80 solution on days 1 to 7. The effect of the substance was assessed on the basis of the lifespan and the weight change of the animals (table 7).
# (§2) The products were administered intraabdominally. Cu(acac)2M was dissolved in 10% Twin 80.
# P388/ph = assay: Drug-resistant leukemia P388/ph (rubomycin-resistant) survival; type: in vivo, mice; settings: 5 mg/kg, days 1-7
# Source text: as §1
# (§3) Resistance to the products mentioned appear in the 8th, 6th and 4th generation.
# as §2
# P388/vcr = assay: Drug-resistant leukemia P388/vcr (vincristine-resistant) survival; type: in vivo, mice; settings: 5 mg/kg, days 1-7
# Source text: as §1, §3, §2
# [1] = test system: drug-resistant leukemia P-388 tumors; settings: rubomycin-, vincristine-, cisplatin-resistant P-388
# Source text: The drug-resistant tumors were obtained by administration of ascites cells leukemia P-388 which were derived from mice treated with rubomycin, vincristine and cisplatin.
# Toxicity investigations = type: in vivo, five laboratory species; settings: 5 mg/kg of body weight
# Description: The toxicity of the complex (C5H7O2)2—Cu—C13H18Cl2N2O2 of the invention was determined on five laboratory species in various tests. […] It was additionally possible to show in the investigations that (C5H7O2)2—Cu—C13H18Cl2N2O2 induces no resistance even on prolonged administration.
# S-180 sarcoma tumor = assay: S-180 sarcoma in white crossbred mice (Example 7); type: in vivo; settings: day 21
# Description: After transplantation of the S-180 sarcoma tumor into white crossbred mice, the animals received the substance MOC.melphalan by intraabdominal administration in a dosage of 1 mg/kg in 0.3 ml of 10% DMSO solution on days 3, 5 and 9. The animals were sacrificed on day 21 of the investigation and underwent histological, morphological examination (table 11).
# (§4) After transplantation of the S-180 sarcoma tumor into white crossbred mice, the animals received MOC.melphalan and melphalan by intraabdominal administration in a dosage of 5 mg/kg in 0.3 ml of 10% DMSO solution on days 3, 5, 7 and 9. The animals were sacrificed on day 21 of the investigation and underwent histological, morphological examination (table 12).
# as §4, with “2, 4, 6, 8” for “3, 5, 7”, “10.” for “9.”, “13).” for “12).”
# B-16 melanoma tumor = assay: B-16 melanoma tumor, MOC.melphalan and MOC.tegafur (Example 13); type: in vivo, mice; settings: Dose 5 mg/kg (table), day 16
# Description: MOC.tegafur was administered in a physiological solution. The animals in the control group likewise received administration of the solutions (without products). On day 16, the mice were sacrificed by decapitation, tumor tissue was removed for histological examination, and the tumor was investigated for antitumor activity (table 23). The tumors were fixed with 10% formalin, which was followed by embedding in paraffin. The section thickness of 5 μm were stained with hematoxylin-eosinome. The microscopy was carried out with a Leica Galen microscope.
# [2] = test system: tumor cell cultures (KML); assay: Protein synthesis: inclusion of 3H-amino acids in tumor cell cultures; type: cell-based, mice; settings: 50 μg/ml, incubation 24 hours
# Description: The effect of the substances on protein synthesis is determined with the aid of the suppression stage through the inclusion of radioactive precursors of amino acids (totaled mixture of ^3H-amino acids). 1 million cells in a “log phase” were selected for this. The complexes were introduced in a dosage of 50 μg/ml and, in parallel, the amino acids with an activity of 10 mCi/ml were introduced into 10 ml bottles. After incubation for 24 hours, the cells were washed out from the cultivation nutrient medium, and a lysis (disruption) was carried out. The radioactivity of the proteins was determined in a […] (table 25).
# Hydrolysis stability = type: physicochemical; settings: for period of stability (no hydrolysis): 20° C.
# Description: 0.6 g of (C5H7O2)2—Cu—C13H18Cl2N2O2 was dispersed in 100 ml of water or physiological saline solution with the aid of an ultrasound generator (frequency: 15 kHz, 10 minutes).
# 0.6 g of (C5H7O2)2—Cu—C13H18Cl2N2O2 was dispersed in 100 ml of 100% olive oil with the aid of an ultrasound generator (frequency: 15 kHz, 10 minutes).
# 0.1 g of (C5H7O2)2—Cu—C13H18Cl2N2O2 was dispersed in 100 ml of linoleic acid or linolenic acid with the aid of an ultrasound generator (frequency: 15 kHz, 10 minutes).
# [3] = 5 mg/kg intraabdominal days 1-7
compound,measurement,setting,value
"CC(=O)C=C(C)[O-].CC(=O)C=C(C)[O-].NC(Cc1ccc(N(CCCl)CCCl)cc1)C(=O)O.[Cu+2] (stereo not shown) [MOC.melphalan, (C5H7O2)2—Cu—C13H18Cl2N2O2]",% inhibition,adenocarcinoma,80%
same,Mass of the tumor,adenocarcinoma; control 4.4,0.9 g
same,% inhibition,C-180 sarcoma,100%
same,Mass of the tumor,C-180 sarcoma; control 2.8,no tumor
same,Change in weight,leukemia P-388; [3],-2.5 g
same,Increase in average lifespan,leukemia P-388; [3],56.0%
same,Number of animals which survived to day 60,"leukemia P-388; 5 mg/kg intraabdominal days 1-7, 6 animals",0
same,Average lifespan,"leukemia P-388; 5 mg/kg intraabdominal days 1-7, control 10.8",16.8 days
same,ILS %,"leukemia P-388; 5 mg/kg, days 1-7",56%
same,ILS %,P388/ph,189%
same,Number of surviving animals/number of animals in group,P388/ph,2/6
same,ILS %,P388/vcr,516%
same,Number of surviving animals/number of animals in group,P388/vcr,5/6
same,sensitivity of the resistant tumors reduced,[1],4-5 fold
same,changes in organs and tissues,Toxicity investigations,no specific changes
same,changes in the peripheral blood count,Toxicity investigations,no serious changes
same,effects on renal and hepatic function,Toxicity investigations,no pathological effects
same,Percentage inhibition,"S-180 sarcoma tumor; 1 mg/kg intraabdominal days 3, 5, 9",100%
same,Percentage inhibition,"S-180 sarcoma tumor; 5 mg/kg intraabdominal days 2, 4, 6, 8, 10",49%
same,Average tumor mass,"S-180 sarcoma tumor; 5 mg/kg intraabdominal days 2, 4, 6, 8, 10, control 3.9 ± 0.5",2.0 ± 0.7 g
same,Percentage inhibition,"S-180 sarcoma tumor; 5 mg/kg intraabdominal days 3, 5, 7, 9",100%
same,MI (mitosis index),B-16 melanoma tumor; control 4.22,0.64
same,Percent inhibition,"B-16 melanoma tumor; intraabdominal days 3, 5, 9",77.71%
same,Tumor weight,"B-16 melanoma tumor; intraabdominal days 3, 5, 9, control 3.22",0.74 g
same,Suppression of amino acid inclusion,[2],59%
same,period of stability,"Hydrolysis stability; 0.1 g in 100 ml of linoleic acid or linolenic acid, 20° C. in air",1 year
same,period of stability (no hydrolysis),Hydrolysis stability; 0.6 g in 100 ml of 100% olive oil,more than 2 years
same,period of stability (no hydrolysis),Hydrolysis stability; 0.6 g in 100 ml of water or physiological saline solution,30 days

# Reference: patent publication US20060052357A1, “Organometallic anti-tumour agent” (priority 2001, published 2006)
